Reference: US7834141B1, “Non-mammalian GnRH analogs and uses thereof in tumor cell growth regulation and cancer therapy” (priority 2000, dated 2010)
Read-outs that look alike come from different tables or passages of the source. Where a SMILES comes first, the peptide text is derived from it.

Tests used:
[1] = tested on: MCF-7 breast cancer cells; assay: MCF-7 breast cancer cell culture viability, Alamar Blue assay; assay type: cell-based, human; details: for inhibition of cell proliferation (cell viability, Alamar Blue): MCF-7, 24 hours of incubation, dose-response; for inhibition of cell proliferation: MCF-7, 48 hours of incubation
Method: This system allows for replicated extended activity studies.
The bio-potency studies were done with a MCF-7 breast cancer cell culture system and the cell viability as a measure of survival was assessed using the Alamar Blue assay. The percent difference in the Alamar Blue optical density (OD) readings at 570 and 600 nm in the treated and untreated controls was determined. […] A dose-response study in quadruplicate cultures was performed. Cell viability was assessed after 24 and 48 hours of incubation with the activity agent.

[2] = tested on: chorionic post-proline peptidase; assay: Competitive inhibition of mammalian GnRH degradation by chorionic post-proline peptidase (enzymatic activity assay, RIA of remaining substrate); details: for relative potency of inhibition of chorionic post-proline peptidase activity compared to that for GnRH: substrate mammalian GnRH, GnRH = 1
Method: (§1) Using the incubation system developed for chorionic post-proline peptidase activity, the degradation of GnRH was tested. Each of these analogs (SEQ ID NO: 2, SEQ ID NO: 4 and SEQ ID NO: 7) were first studied for their ability to act as a competitive inhibitor of GnRH for chorionic post-proline peptidase activity using the enzymatic activity assay as described previously (103). […] The reaction was stopped by heating at 85° C. for 10 minutes. […] The product formed, i.e. the N-terminal nonapeptide of GnRH, was calculated by subtraction, and its inverse plotted against the inverse of the original substrate concentrations to determine the Ks of the competition. The Ki was determined by plotting the inverse of the product that formed versus the inhibitor used.

[3] = tested on: GnRH receptors on the cells of MCF-7 breast cancer cells; assay: Competitive binding of I^125-D-Arg(6)-Chicken II GnRH-aza-Gly(10)-amide to MCF-7 breast cancer cells; parameters: species or system human; details: for competitive inhibition of I^125-D-Arg(6)-Chicken II GnRH-aza-Gly(10)-amide binding (rank of potency): MCF-7 cells, 24 hours at room temperature; for receptor potency (in words): receptor test not given
Method: GnRH receptors on the cells of MCF-7 breast cancer cells were studied. The cells were plated on 96 wells and grown to confluency in base medium (M3D:Fetal Bovine Serum [9:1]). Prior to the experiment the cells were down shifted to M3D:Fetal Bovine Serum [99:1] and then to serum-free medium. […] Addition of enzyme inhibitors of the endogenous post-proline peptidase and other peptidases were used as well as agents for receptor stabilization. Receptor bound label was separated by centrifugation. The binding of the non-mammalian GnRH analog and its ability to regulate the tumor cells' GnRH receptor was compared. […] This was followed by Buserilin. […] This indicated the high innate affinity of this isoform of GnRH for the tumor GnRH receptor. It is believed by Applicants that the same or similar results could be obtained using other non-mammalian GnRH isomers or analogs with similar amino acid structure as Chicken II GnRH such as but not limited to Salmon GnRH, Herring GnRH, Catfish GnRH, or Dogfish GnRH.

[4] = tested on: MCF-7 breast cancer cells; assay: Degradation of GnRH and analogs by tumor tissue cells, with or without peptidase inhibitors; assay type: in vitro ADME, human
Description: Post-Proline Peptidase Stability Studies: As mentioned earlier, the post-proline peptidase is important in actively degrading peptides that contain a proline residue. GnRH is such a peptide. Initially the enzymatic activity of the tumor cell was studied. Tumor tissue cells and their spent media were studied for enzyme activity. In particular, examination was made for the degradation of GnRH both with and without specific post-proline and endopeptidase activity inhibitors to determine the specificity of the tumor enzymatic activity.
Chorionic post-proline peptidase is a peptidase with high specificity for the degradation of GnRH at the proline-glycine bond, but can also degrade other GnRH species containing this bond.

[5] = tested on: chorionic post-proline peptidase
Method: as §1

Q: With CCNC(=O)[C@@H]1CCCN1C(=O)[C@H](CCCNC(=N)N)NC(=O)[C@H](CC(C)C)NC(=O)[C@@H](COC(C)(C)C)NC(=O)[C@H](Cc1ccc(O)cc1)NC(=O)[C@H](CO)NC(=O)[C@H](Cc1c[nH]c2ccccc12)NC(=O)[C@H](Cc1cnc[nH]1)NC(=O)[C@@H]1CCC(=O)N1 [Buserilin] as the molecule, how does the “inhibition of cell proliferation (cell viability, Alamar Blue)” value [1] read?
A: The value was “totally inactive”.

Q: What about the “degradation by chorionic post-proline peptidase (in words)” value (“degradation … (in words)” for short) [2] of the same molecule?
A: Its value is “competitively inhibited the degradation of mammalian GnRH”.

Q: What does the source list for N=C(N)NCCC[C@@H](NC(=O)[C@H](Cc1c[nH]cn1)NC(=O)[C@H](CO)NC(=O)[C@H](Cc1c[nH]c2ccccc12)NC(=O)[C@H](Cc1c[nH]cn1)NC(=O)[C@@H]1CCC(=O)N1)C(=O)N[C@@H](Cc1c[nH]c2ccccc12)C(=O)N[C@@H](Cc1ccc(O)cc1)C(=O)N1CCC[C@H]1C(=O)NNC(N)=O [D-Arg(6)-Chicken II GnRH-aza-Gly(10)-amide] (HELM PEPTIDE1{[Glp].H.W.S.H.[dR].W.Y.P.[O=C(NN[*:1])[*:2]].[am]}$$$$V2.0)?
A: inhibition of cell proliferation (cell viability, Alamar Blue) [1]: positive dose-related activity; inhibition of cell proliferation at 10^−5 M ([1]; MCF-7, 24 hours, 10^−5 M): markedly active; inhibition of cell proliferation [1]: equally as potent as at 24 hours; binding of I^125-labelled analog to MCF-7 breast cancer cells ([3]; 24 hours of incubation, no exogenous GnRH): specifically bound the MCF-7 breast cancer cells; competitive inhibition of I^125-D-Arg(6)-Chicken II GnRH-aza-Gly(10)-amide binding (rank of potency) [3]: greatest potency; receptor potency (in words) [3]: increased receptor potency; degradation by chorionic post-proline peptidase (in words) [2]: resistant to degradation

Q: CCNC(=O)[C@@H]1CCCN1C(=O)[C@H](CCCNC(=N)N)NC(=O)[C@H](CC(C)C)NC(=O)[C@@H](CC(C)C)NC(=O)[C@H](Cc1ccc(O)cc1)NC(=O)[C@H](CO)NC(=O)[C@H](Cc1c[nH]c2ccccc12)NC(=O)[C@H](Cc1c[nH]cn1)NC(=O)[C@@H]1CCC(=O)N1 [Leuprolide] was tested. Which “inhibition of cell proliferation (cell viability, Alamar Blue)” value [1] did it give?
A: The value was “totally inactive”.

Q: For CC[C@H](C)[C@H](N)C1=N[C@H](C(=O)N[C@@H](CC(C)C)C(=O)N[C@H](CCC(=O)O)C(=O)N[C@H](C(=O)N[C@H]2CCCCNC(=O)[C@H](CC(N)=O)NC(=O)[C@@H](CC(=O)O)NC(=O)[C@H](Cc3cnc[nH]3)NC(=O)[C@@H](Cc3ccccc3)NC(=O)[C@H]([C@@H](C)CC)NC(=O)[C@@H](CCCN)NC2=O)[C@@H](C)CC)CS1 [bacitracin] (HELM PEPTIDE1{[CC[C@H](C)[C@H](N)C1=N[C@H](C(=O)[*:2])CS1].L.[dE].I.K.[NCCC[C@@H](N[*:1])C(=O)[*:2]].I.[dF].H.[dD].N}$PEPTIDE1,PEPTIDE1,5:R3-11:R2$$$V2.0), which “inhibition of the degradation of mammalian GnRH in tumor cell extracts” value ([4]; specific inhibitors of post-proline peptidase) is on record?
A: Its value is “inhibited”.

Q: Antide was tested. Which “degradation … (in words)” value [2] did it give?
A: Its value is “degraded with reduced activity”.

Q: And the “potency as competitor for chorionic post-proline peptidase compared to GnRH (in words)” value [2]?
A: The value was “three fold less potent than GnRH”.

Q: And the “relative potency of inhibition of chorionic post-proline peptidase activity compared to that for GnRH” value [2]?
A: The value was 0.6.

Q: With Im-btl-D-His(6)-GnRH-ethylamide as the molecule, how does the “receptor potency (in words)” value [3] read?
A: Its value is “reduced receptor potency”.

Q: Which results are given for “Mammalian GnRH: mammalian gonadotropin releasing hormone decapeptide”?
A: degradation by chorionic post-proline peptidase (in words) [5]: actively degraded; inhibition of cell proliferation [1]: totally ineffective; degradation of mammalian GnRH by the tumor tissue cells ([4]; after overnight incubation): ~100%; competitive inhibition of I^125-D-Arg(6)-Chicken II GnRH-aza-Gly(10)-amide binding (rank of potency) [3]: weakest competitor

Q: Which “relative potency of inhibition of chorionic post-proline peptidase activity compared to that for GnRH” value [2] does the source give for OH-Pro(9)-GnRH here?
A: Its value is 1.5.

Q: With des-Gly(10), D-Trp(6)-GnRH ethylamide as the molecule, how does the “degradation … (in words)” value [2] read?
A: The value was “competitively inhibited the degradation of mammalian GnRH”.

Q: des-Gly(10)-D-Leu(6)-GnRH ethylamide was tested. Which “degradation … (in words)” value [2] did it give?
A: Its value is “competitively inhibited the degradation of mammalian GnRH”.

Q: How did the “degradation … (in words)” value [2] turn out when des-Gly(10)-GnRH ethylamide was run?
A: The value was “competitively inhibited the degradation of mammalian GnRH”.
